Test results taken from article PMC6839174, “Targeting the Formyl Peptide Receptor type 1 to prevent the adhesion of ovarian cancer cells onto mesothelium and subsequent invasion” (Journal of Experimental & Clinical Cancer Research : CR, 2019).
Non-standard residues stand in square brackets, D forms with d. Aib = CC(C)(N)C(=O)O

Assays:
primary EOC cells [1] = test: HPMC invasion by primary EOC cells monitored in real time; type: cell-based, human; conditions: 10 nM RI-3; xCELLigence, slopes 18–24 h; quadruplicate representative of 3 replicates
Method: (§1) HPMCs (5 × 10^3 cells/well) suspended in growth medium, were seeded in E-16-well plates and allow to adhere for 18–20 h until they form a confluent monolayer, prior to seeding EOC cells (2 × 10^4 cells/well) in growth medium plus/minus 10 nM RI-3. When HPMCs are challenged with invading cells, there is a drop in electrical resistance within 2–4 h which is monitored in real-time as the Cell Index changes due to the rupture of mesothelium. The experiments were performed three times in quadruplicate.

A2780 cells [2] = test: HPMC invasion by A2780 cells monitored in real time; type: cell-based, Human; conditions: 10 nM RI-3; xCELLigence; quadruplicate representative of 2 replicates
Method: as §1
Supplementary file 13046_2019_1465_MOESM1_ESM.zip: Additional file 1: Figure S1. Adhesion and mesothelial invasion properties of uPAR and FPR1 lacking EOC cells. a. […] analysis of human ovarian carcinoma A2780 cells with (CD87)-APC-conjugated anti-uPAR or PE-conjugated FPR1 antibodies. b. Cell adhesion of A2780 cells on 1% BSA (CTRL), Vn-, Fn-Lm or Coll-coated plates, in the presence or the absence of 10 nM RI-3. The number of adherent cells was expressed as a percentage of CTRL. Data are the means ± SD of three independent experiment. c. Mesothelium invasion by A2780 cells. […] Then, A2780 cells suspended in growth medium plus/minus 10 nM RI-3 were seeded onto the mesothelial cell monolayer and invasion of mesothelium by A2780 cells was monitored in real-time as changes in Cell Index due to breaking of the monolayer integrity. […]

A2780 cells [3] = test: Adhesion of A2780 cells onto extracellular matrix proteins; type: cell-based, Human; conditions: A2780 cells lacking uPAR and FPR1, 10 nM RI-3; BSA, Vn, Fn, Lm or Coll; three independent experiments
Method: Adhesion assays were performed using 24 multi-well plates coated with 1% BSA, 5 μg mL vitronectin (Vn), 5 μg mL fibronectin (Fn), 5 μg mL laminin (Lm) or 15 μg mL collagen (Coll) diluted in serum-free medium. Sub-confluent cells were harvested by a mild trypsinization, incubated with 10% FBS / DMEM for 1 h at 37 °C, 5% CO2, acid treated with a buffer containing 50 mM glycin-HC1, 0.1 M NaCl, pH 3 for 4 min at 22 °C, to remove receptor-bound ligands, and counted. Viable cells (2 × 10^5 cells per well) were plated in serum-free medium, in the absence or presence of 2 μg/mL R3 mAb recognizing the DI uPAR domain, 2 μg/mL399 anti-uPAR (American Diagnostica), 2 μg/mL anti-uPAR84-95 (PRIMM), 2 μg/mL anti-α-tubulin (Cell Signaling) Abs or 10 nM RI-3, and allowed to adhere for 2 h at 37 °C, 5% CO2. […] At the end of the assay, adherent cells were removed with 0.05% trypsin, and counted. The number of adherent cells was expressed as a percentage of the basal cell adhesion (CTRL). […]
Supplementary file 13046_2019_1465_MOESM1_ESM.zip: Additional file 1: Figure S1. […] The number of adherent cells was expressed as a percentage of CTRL. […] Then, A2780 cells suspended in growth medium plus/minus 10 nM RI-3 were seeded onto the mesothelial cell monolayer and invasion of mesothelium by A2780 cells was monitored in real-time as changes in Cell Index due to breaking of the monolayer integrity. […]

primary EOC cells [4] = test: Adhesion of primary EOC cells onto matrix proteins monitored in real time (xCELLigence); type: cell-based, human
Method: This assay was performed using E-16-well plates and the xCELLigence Real Time Cell Analysis technology. Bottom wells were coated with serum-free medium, 5 μg mL Vn, 5 μg mL Fn, 5 μg mL Lm or 15 μg mL Coll diluted in serum-free medium prior to seeding cells (1 × 10^4 cells/well) suspended in serum-free medium. Cells that adhere to the bottom of plates cause impedance changes which are proportional to the number of cells. The impedance value of each well was automatically monitored in real-time for at least 2 h and expressed as a cell index value. The experiments were performed three times in quadruplicate.
Fig. 6 RI-3 prevents EOC cell adhesion and subsequent invasion of mesothelium. a Adhesion of primary EOC cells on E-plates coated with 1% BSA (CTRL), 5 μg mL Vn, 5 μg mL Fn, 5 μg mL Lm or 15 μg mL Coll, with/without 10 nM RI-3, monitored in real time for 5 h by the xCELLigence system. Data represent mean ± SD from a quadruplicate experiment representative of 3 replicates. b-c Adhesion of EOC cells onto Vn in the absence or presence of 10 nM RI-3, monitored in real time for 3 h by the xCELLigence system. […] At the indicated times, cell associated fluorescence was assessed by a fluorescence plate reader. […] Cells invasion was monitored in real-time as changes in Cell Index due to breaking of the monolayer integrity (e). […]

[5] = system: SKOV-3 and primary EOC cells; test: Cell adhesion to vitronectin, SKOV-3 and primary EOC cells (summary statement); type: cell-based, human; conditions: pre-exposure
Method: Adhesion assays were performed using 24 multi-well plates coated with 1% BSA, 5 μg mL vitronectin (Vn), 5 μg mL fibronectin (Fn), 5 μg mL laminin (Lm) or 15 μg mL collagen (Coll) diluted in serum-free medium. Sub-confluent cells were harvested by a mild trypsinization, incubated with 10% FBS / DMEM for 1 h at 37 °C, 5% CO2, acid treated with a buffer containing 50 mM glycin-HC1, 0.1 M NaCl, pH 3 for 4 min at 22 °C, to remove receptor-bound ligands, and counted. Viable cells (2 × 10^5 cells per well) were plated in serum-free medium, in the absence or presence of 2 μg/mL R3 mAb recognizing the DI uPAR domain, 2 μg/mL399 anti-uPAR (American Diagnostica), 2 μg/mL anti-uPAR84-95 (PRIMM), 2 μg/mL anti-α-tubulin (Cell Signaling) Abs or 10 nM RI-3, and allowed to adhere for 2 h at 37 °C, 5% CO2. […] At the end of the assay, adherent cells were removed with 0.05% trypsin, and counted. The number of adherent cells was expressed as a percentage of the basal cell adhesion (CTRL). The experiments were performed at least three times in triplicate.
This assay was performed using E-16-well plates and the xCELLigence Real Time Cell Analysis technology. […] The impedance value of each well was automatically monitored in real-time for at least 2 h and expressed as a cell index value. […]

[6] = set-up: method as in PMID 28465589; conditions: mice, ref [36], cited from earlier work
SKOV-3 cells = test: GFP-SKOV-3 cell adhesion onto mesothelium (HPMC monolayer); type: cell-based, Human; conditions: means of three independent experiments in triplicate
Method: HPMCs (1 × 10^5 cells/well) suspended in growth medium, were seeded in 24-well plates and allowed to adhere for about 20 h until they form a confluent monolayer, prior to seeding GFP-tagged EOC cells suspended in growth medium plus diluents or 10 nM RI-3. At the indicated times, plates were accurately washed with PBS and cell-associated fluorescence was assessed by a fluorescence plate reader a fluorescence plate reader (Victor 3, Perkin Elmer), using 485 nm excitation and 535 nm emission filters. The experiments were performed three times in triplicate.

Ac-[dY][dR][Aib][dR]-NH2 [RI-3, retro-inverso peptide, uPAR/FPR1 antagonist]
reduction of capability of EOC cells to cross the mesothelial cell monolayer (primary EOC cells [1]): about 80% | A2780 cell crossing of mesothelium (A2780 cells [2]): ineffective | A2780 cell adhesion (A2780 cells [3]): ineffective | reduction of primary EOC cell adhesion onto Vn (primary EOC cells [4]; 10 nM RI-3, 5 μg mL Vn, real time, slopes 10–120 min, quadruplicate representative of 3 replicates): 55% | matrix selectivity of adhesion reduction, primary EOC cells (primary EOC cells [4]; 10 nM RI-3, Vn vs Fn, Coll, Lm, real time 5 h): exclusively reduced cell adhesion onto Vn | extent of cell adhesion to vitronectin (abstract) [5]: decreases to basal level | body weight ([6]; versus vehicle-treated animals): no change of body weight | tolerability in vivo [6]: well tolerated in vivo | visible side-effects [6]: no visible side-effects | reduction of cell associated fluorescence (SKOV-3 adhesion to mesothelium) (SKOV-3 cells; 10 nM RI-3, after 5 min): 57% | reduction of cell associated fluorescence (SKOV-3 adhesion to mesothelium) (SKOV-3 cells; 10 nM RI-3, after 10 min): 47% | reduction of cell associated fluorescence (SKOV-3 adhesion to mesothelium) (SKOV-3 cells; 10 nM RI-3, after 20 min): 58% | reduction of cell associated fluorescence (SKOV-3 adhesion to mesothelium) (SKOV-3 cells; 10 nM RI-3, after 40 min): 54%
